Results as given in PMC13254586, “C-terminal dimerization motifs control asynchronous chain elongation during modular polyketide biosynthesis [drawing 1]” (The Journal of Biological Chemistry, 2026).

Tests used:
M1-DD = molecular target: T1, M1-DD (Amycolatopsis mediterranei, UniProt O54666); test: cryo-EM structure; type: binding; details: covalent on CP Ser1538; Ppant occupies KS active site tunnel; elongation mode; 3.22 Å; Fab 1B2 bound
T1 construct: gene rifA; RIFS module 1 (KS-AT-DH0-KR-CP) with N- and C-terminal docking domains of the erythromycin assembly line, C-terminal His6; holo form, E. coli BAP1; homodimer

LM-M1-DD = molecular target: T2, LM-M1-DD (Amycolatopsis mediterranei, UniProt O54666); test: LC-MS/MS-MRM of hydrolysed diketide, single turnover; type: biochemical; details: ATP/Mg2+, racemic MeMal-CoA, pH 7.3, room temperature
T2 construct: gene rifA; RIFS loading module plus module 1 bimodule (A-CP, KS-AT-DH0-KR-CP) with C-terminal docking domain (DD) of the erythromycin synthase; holo form, E. coli BAP1; Ni-NTA purified; homodimer
T2 sequence (O54666 1-2179 limits assumed): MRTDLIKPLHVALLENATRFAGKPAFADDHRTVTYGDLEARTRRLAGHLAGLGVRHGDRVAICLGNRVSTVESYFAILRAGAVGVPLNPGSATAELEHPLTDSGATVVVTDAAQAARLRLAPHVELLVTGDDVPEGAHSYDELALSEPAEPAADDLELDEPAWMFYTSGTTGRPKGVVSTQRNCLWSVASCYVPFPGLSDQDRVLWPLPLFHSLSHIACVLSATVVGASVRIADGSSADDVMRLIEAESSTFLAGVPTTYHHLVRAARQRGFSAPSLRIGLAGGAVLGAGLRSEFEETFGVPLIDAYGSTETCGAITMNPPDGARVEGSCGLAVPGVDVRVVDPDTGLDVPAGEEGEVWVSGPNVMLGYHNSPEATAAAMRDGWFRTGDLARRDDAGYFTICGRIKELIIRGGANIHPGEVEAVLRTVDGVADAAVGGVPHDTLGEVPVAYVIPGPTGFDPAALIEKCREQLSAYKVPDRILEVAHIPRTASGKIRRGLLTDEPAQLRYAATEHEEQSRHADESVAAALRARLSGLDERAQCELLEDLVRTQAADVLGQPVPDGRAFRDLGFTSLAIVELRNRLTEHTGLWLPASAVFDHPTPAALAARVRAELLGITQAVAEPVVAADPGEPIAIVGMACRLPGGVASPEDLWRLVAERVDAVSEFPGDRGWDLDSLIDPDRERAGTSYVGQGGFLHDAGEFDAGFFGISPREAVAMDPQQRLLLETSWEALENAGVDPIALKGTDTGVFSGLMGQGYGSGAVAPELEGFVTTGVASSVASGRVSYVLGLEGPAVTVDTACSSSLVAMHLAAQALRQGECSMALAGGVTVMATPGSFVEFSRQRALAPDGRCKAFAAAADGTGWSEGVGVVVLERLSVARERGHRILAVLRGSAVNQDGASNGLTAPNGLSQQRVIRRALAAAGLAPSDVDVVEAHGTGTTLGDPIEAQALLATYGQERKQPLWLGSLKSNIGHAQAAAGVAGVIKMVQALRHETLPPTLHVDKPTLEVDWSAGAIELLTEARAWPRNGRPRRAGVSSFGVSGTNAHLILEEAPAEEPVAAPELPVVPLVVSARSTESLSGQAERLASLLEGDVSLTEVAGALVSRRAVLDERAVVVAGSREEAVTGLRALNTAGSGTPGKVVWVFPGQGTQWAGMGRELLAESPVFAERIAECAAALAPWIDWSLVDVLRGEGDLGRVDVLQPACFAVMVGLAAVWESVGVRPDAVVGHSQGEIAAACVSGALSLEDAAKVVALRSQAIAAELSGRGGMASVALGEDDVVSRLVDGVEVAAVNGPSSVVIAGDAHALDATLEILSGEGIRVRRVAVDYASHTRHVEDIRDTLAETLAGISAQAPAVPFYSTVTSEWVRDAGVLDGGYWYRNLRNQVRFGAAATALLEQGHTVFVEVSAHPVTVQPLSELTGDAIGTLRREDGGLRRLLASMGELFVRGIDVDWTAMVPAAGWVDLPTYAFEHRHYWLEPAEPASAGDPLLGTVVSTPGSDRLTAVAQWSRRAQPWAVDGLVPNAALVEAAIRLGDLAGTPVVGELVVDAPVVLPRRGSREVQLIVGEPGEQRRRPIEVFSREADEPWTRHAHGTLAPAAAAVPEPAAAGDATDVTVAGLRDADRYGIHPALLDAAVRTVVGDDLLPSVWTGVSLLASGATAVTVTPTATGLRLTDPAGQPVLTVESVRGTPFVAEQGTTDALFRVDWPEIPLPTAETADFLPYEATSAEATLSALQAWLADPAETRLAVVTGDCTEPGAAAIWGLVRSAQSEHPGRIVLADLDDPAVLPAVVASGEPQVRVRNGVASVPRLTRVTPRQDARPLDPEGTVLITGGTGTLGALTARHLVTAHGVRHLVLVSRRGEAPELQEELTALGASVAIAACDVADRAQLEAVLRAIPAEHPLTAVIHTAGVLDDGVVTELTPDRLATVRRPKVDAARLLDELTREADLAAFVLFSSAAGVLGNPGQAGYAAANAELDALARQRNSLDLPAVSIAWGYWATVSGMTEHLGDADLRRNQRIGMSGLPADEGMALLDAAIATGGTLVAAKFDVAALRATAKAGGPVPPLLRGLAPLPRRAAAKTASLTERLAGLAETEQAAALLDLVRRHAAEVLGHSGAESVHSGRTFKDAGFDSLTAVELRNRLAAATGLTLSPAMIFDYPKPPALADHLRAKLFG

LM-M1-TEII° = molecular target: T3, LM-M1-TEII° (Amycolatopsis mediterranei, UniProt O54666); test: as above; type: biochemical; details: ATP/Mg2+, racemic MeMal-CoA, NADPH; pH 7.3; room temperature
T3 construct: gene rifA; holo form, E. coli BAP1; homodimer
T3 sequence (O54666 1-2180 limits assumed): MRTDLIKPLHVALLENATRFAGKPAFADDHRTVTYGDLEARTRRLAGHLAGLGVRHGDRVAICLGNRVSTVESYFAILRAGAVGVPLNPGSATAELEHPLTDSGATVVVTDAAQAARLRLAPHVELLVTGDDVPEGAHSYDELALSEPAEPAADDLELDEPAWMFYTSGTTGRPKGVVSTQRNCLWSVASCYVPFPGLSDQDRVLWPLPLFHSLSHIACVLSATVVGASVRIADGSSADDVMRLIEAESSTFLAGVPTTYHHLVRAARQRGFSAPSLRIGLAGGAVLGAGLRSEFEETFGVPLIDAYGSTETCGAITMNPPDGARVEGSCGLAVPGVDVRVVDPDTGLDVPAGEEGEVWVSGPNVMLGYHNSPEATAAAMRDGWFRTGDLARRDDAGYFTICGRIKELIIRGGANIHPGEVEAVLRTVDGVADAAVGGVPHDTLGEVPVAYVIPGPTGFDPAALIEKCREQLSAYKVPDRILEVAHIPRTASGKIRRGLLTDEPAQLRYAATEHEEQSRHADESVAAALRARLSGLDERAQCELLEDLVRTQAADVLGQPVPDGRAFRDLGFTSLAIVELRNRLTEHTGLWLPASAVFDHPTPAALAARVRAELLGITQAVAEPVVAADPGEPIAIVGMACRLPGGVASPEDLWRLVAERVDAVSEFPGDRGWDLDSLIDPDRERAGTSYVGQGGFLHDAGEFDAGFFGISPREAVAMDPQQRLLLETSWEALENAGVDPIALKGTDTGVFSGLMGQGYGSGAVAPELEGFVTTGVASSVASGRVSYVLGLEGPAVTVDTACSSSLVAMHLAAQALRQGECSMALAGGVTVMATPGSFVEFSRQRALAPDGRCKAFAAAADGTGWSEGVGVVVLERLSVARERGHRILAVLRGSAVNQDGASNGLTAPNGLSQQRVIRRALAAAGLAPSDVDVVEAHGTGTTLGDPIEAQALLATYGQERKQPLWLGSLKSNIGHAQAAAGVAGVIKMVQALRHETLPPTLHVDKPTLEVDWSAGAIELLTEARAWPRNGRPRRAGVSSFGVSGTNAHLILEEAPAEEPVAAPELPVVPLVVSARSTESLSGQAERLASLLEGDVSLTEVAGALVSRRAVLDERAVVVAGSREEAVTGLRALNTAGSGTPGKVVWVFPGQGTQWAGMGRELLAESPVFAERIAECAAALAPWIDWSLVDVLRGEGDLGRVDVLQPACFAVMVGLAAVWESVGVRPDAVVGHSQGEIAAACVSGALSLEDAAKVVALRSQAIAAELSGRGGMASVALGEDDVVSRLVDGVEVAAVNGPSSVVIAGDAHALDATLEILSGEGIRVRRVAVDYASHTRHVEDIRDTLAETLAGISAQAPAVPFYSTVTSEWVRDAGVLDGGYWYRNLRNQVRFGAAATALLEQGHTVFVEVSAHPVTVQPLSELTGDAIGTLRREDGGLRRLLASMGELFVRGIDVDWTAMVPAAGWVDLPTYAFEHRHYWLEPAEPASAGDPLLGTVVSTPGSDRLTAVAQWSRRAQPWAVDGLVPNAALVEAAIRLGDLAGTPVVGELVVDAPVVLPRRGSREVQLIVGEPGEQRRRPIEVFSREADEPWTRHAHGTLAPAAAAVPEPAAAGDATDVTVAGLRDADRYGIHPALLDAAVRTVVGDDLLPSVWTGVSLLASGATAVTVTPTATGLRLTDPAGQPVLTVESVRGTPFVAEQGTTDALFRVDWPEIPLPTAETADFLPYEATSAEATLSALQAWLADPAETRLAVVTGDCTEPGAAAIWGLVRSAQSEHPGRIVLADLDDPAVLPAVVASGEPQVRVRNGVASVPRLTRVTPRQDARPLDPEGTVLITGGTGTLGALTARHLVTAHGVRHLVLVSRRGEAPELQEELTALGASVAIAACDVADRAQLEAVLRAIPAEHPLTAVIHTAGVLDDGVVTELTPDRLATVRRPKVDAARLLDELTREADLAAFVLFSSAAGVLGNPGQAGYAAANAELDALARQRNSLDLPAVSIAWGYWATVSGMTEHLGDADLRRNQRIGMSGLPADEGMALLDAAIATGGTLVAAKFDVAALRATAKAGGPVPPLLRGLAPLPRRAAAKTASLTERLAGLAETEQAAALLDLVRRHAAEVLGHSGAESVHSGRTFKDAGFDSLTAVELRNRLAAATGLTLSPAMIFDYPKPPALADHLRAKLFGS
T3 sequence (Q7BUF9 1-259 S94A partner): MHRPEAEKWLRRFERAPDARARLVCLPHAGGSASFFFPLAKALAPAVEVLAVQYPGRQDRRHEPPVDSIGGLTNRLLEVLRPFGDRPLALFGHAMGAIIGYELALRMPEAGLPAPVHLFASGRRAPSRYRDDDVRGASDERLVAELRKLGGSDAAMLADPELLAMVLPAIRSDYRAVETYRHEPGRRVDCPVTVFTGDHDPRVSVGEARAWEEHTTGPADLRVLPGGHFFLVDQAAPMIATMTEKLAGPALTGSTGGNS

CC(C)(COP(=O)(O)O)[C@@H](O)C(=O)NCCC(=O)NCCS [4′-phosphopantetheine]
cryo-EM structure (M1-DD): within the KS active site tunnel occupied by the Ppant cofactor

NC(=O)C1=CN([C@@H]2O[C@H](COP(=O)(O)OP(=O)(O)OC[C@H]3O[C@@H](n4cnc5c(N)ncnc54)[C@H](OP(=O)(O)O)[C@@H]3O)[C@@H](O)[C@H]2O)C=CC1 [NADPH]
LC-MS/MS-MRM of hydrolysed diketide, single turnover (LM-M1-DD; 1 mM NADPH present or absent, benzoate): expected time- and NADPH-dependent accumulation of hydrolyzed keto-d2

O=C(O)c1ccccc1 [benzoate]
LC-MS/MS-MRM of hydrolysed diketide, single turnover (LM-M1-TEII°): both LM-M1-DD and LM-M1-TEII° were catalytically active
LC-MS/MS-MRM of hydrolysed diketide, single turnover (LM-M1-DD; NADPH): both LM-M1-DD and LM-M1-TEII° were catalytically active
